From patent publication US20140179681A1, “METHODS AND COMPOSITIONS OF TARGETED DRUG DEVELOPMENT” (priority 2010, published 2014) come the findings set out here.

One assay concerns the target T1, EGFR (Homo sapiens, UniProt P00533).
T1 construct: host or cells: A431
The assay is described as follows: EGFR in-cell Western (ICW) screening protocol (EGFR inhibition assay). The settings on record: % Inhibition of EGF dependent EGFR phosphorylation in A431 cells, compound 125 μM in assay. The class given is cell-based. The essentials:
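Serum-starved A431 cells (2 h) were pretreated with compound for 4 h at 37° C, then stimulated with EGF (10 ng/ml final, or 6.6 or 12.5 ng/ml in some runs) for 10 min. After formaldehyde fixation, phospho-EGFR (Tyr1173, or Tyr1045 in some runs) and total EGFR were detected by in-cell Western immunostaining.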

A further assay has as its target T2, EGF binding site (Rattus norvegicus, UniProt G3V6K6).
T2 construct: Receptor source was rat liver membranes; tissue NovaScreen BioSciences; host or cells: rat liver membranes
The assay is described as follows: Inhibition of [125I]EGF binding (EGF inhibitor assay, NovaScreen). The settings on record: determined at 25 μM; rat liver membranes; result in words. Here is the method: Identified compounds, representing various pharmacophore models, were tested for ability to inhibit EGFR at 25 μM.
AD4-compounds were identified using pharmacophore models (see Example 3, Example 4) and then were docked with the binding site of EGFR (SEQ ID NO: 1) that is recognized by defined CDRs of cetuximab. The inhibition of epidermal growth factor binding by AD4-compounds was then determined (NovaScreen BioSciences, Hanover, Md.). Inhibition of EGF binding was determined at 25 μM concentration.
Receptor source was rat liver membranes. The radioligand was [^125I]EGF ([…]) at a final ligand concentration of 0.36 nM. A non-specific determinant was used as EGF—[100 nM]. The reference compound and positive control was EGF. Reactions were carried out in 10 mM HEPES (pH 7.4) containing 0.1% BSA at 25° C. for 60 minutes. The reaction was terminated by rapid vacuum filtration onto glass fiber filters. Radioactivity trapped onto the filters was determined and compared to control values to ascertain any interactions of test compounds with the EGF binding site. The EGF inhibitor assays were modified from, for example, Mukku (1984) J. Biol. Chem. 259, 6543-6546; Duh et al. (1990) World J. Surgery 14, 410-418; Lokeshwar et al. (1989) J. Biol. Chem. 264(32), 19318-19326.

T2 sequence (G3V6K6 25-1209): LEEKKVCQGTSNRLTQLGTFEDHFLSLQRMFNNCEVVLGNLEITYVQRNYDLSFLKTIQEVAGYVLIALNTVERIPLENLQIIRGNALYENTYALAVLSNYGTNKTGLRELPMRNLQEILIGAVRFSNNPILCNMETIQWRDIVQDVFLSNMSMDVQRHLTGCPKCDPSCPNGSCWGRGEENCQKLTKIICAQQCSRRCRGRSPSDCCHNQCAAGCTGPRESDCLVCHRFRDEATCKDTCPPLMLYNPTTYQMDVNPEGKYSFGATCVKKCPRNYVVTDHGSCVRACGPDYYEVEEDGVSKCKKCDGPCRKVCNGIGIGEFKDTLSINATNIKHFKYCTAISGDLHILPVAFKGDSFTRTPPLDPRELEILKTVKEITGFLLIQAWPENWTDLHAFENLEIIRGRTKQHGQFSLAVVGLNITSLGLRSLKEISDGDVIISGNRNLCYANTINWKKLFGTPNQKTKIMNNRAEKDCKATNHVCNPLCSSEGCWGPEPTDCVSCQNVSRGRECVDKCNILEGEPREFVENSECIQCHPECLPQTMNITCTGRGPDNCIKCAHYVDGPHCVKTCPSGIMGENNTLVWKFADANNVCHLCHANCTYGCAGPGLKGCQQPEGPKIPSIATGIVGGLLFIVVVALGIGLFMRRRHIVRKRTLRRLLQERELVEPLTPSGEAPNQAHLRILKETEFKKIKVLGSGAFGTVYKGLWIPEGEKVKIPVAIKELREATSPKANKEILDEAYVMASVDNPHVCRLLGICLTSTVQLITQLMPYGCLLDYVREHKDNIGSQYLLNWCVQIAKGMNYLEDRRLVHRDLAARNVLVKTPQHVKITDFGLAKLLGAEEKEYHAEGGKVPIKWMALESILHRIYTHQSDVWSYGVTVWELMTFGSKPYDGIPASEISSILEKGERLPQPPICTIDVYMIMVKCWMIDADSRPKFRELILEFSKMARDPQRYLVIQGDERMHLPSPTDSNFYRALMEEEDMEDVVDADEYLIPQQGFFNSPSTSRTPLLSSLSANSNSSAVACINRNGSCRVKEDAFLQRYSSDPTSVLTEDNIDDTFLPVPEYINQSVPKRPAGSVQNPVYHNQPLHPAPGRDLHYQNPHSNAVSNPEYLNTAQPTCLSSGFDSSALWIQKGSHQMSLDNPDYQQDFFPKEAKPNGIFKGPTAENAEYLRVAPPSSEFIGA
T1 sequence (P00533 25-1210): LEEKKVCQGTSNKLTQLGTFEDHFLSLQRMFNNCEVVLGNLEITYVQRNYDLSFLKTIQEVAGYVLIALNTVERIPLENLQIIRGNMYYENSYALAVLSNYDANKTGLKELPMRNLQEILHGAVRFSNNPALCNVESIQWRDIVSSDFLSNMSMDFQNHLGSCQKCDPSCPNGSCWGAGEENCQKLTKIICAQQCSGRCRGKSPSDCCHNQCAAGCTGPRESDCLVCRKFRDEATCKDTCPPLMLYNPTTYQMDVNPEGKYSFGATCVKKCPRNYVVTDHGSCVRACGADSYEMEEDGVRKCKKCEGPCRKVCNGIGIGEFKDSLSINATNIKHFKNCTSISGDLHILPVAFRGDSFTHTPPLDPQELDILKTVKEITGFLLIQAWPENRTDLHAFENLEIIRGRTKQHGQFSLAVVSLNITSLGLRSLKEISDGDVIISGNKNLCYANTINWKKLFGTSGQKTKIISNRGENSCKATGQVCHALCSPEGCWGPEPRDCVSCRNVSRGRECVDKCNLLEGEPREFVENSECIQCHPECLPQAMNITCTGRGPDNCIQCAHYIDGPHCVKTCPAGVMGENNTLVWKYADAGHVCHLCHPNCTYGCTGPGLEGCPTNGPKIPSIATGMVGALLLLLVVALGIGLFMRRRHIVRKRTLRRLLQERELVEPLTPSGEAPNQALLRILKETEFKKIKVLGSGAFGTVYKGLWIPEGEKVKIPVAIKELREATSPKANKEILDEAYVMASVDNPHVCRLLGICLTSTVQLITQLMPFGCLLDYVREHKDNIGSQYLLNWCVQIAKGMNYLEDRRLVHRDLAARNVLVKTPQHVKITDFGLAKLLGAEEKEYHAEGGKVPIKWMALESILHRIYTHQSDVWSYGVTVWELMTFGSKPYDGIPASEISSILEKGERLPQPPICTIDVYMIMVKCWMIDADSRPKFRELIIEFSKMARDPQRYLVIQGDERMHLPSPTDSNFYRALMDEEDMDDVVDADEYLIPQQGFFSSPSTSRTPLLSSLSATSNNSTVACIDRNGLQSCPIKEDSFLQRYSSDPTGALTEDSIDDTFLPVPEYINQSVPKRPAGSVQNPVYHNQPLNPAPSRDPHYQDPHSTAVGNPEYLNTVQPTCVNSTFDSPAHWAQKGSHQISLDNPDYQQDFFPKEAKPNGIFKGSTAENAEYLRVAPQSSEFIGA

`CCc1cc2c(CN3CCN(Cc4ccc5c(c4)OCO5)CC3)cc(=O)oc2cc1O` [AD4-1734]: the “ICW Screen” value on EGFR (Table 11) is reported as 65.9. For the same compound, at EGF binding site, the “inhibition of epidermal growth factor binding to its receptor” value is “inhibitor of epidermal growth factor binding to its receptor”.
`Cc1cc(C)cc(NS(=O)(=O)c2ccc(NC(=S)Nc3ccccc3)cc2)c1` [AD4-11091] came in with an ICW assay against EGFR (Table 10) of 112.858. Also, the “inhibition of epidermal growth factor binding to its receptor” value on EGF binding site is recorded as “inhibitor of epidermal growth factor binding to its receptor”.
